Data published in patent US20240316038A1, “APOL1 INHIBITORS AND METHODS OF USE” (Maze Therapeutics, Inc., priority 2021, published 2024).

How the values were obtained:
APOL1 G2 [1] = molecular target: T1, APOL1 G2 (Homo sapiens, UniProt O14791, DEL388-389); assay: APOL1 calcium transport inhibition assay (GCaMP6f calcium influx, FLIPR) in HEK T-REx/GCaMP6f/APOL1 G2 K6.3 cells; assay type: cell-based; conditions: inhibition of APOL1-mediated calcium influx; geometric mean of at least 2 assay runs, † = single assay run (technical duplicate)
T1 construct: expressed in transfected cells; host or cells: HEK293 T-REx clonal lines: HEK T-REx/GCaMP6f/APOL1 G2 K6.3 in A1, HEK293/T-REx APOL1 G2/clone #2 in A2
T1 sequence (O14791 with tags, fused parts or gaps DEL388-389): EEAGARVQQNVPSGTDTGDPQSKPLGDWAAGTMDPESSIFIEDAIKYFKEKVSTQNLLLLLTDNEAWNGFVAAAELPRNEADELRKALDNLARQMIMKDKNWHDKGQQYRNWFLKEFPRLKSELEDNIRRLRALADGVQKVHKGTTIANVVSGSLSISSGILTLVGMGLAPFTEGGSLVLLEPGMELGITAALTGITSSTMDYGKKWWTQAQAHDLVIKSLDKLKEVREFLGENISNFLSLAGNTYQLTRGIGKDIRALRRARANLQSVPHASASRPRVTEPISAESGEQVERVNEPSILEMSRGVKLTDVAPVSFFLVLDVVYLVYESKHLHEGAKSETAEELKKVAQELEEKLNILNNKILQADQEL
Outline: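 HEK293 cells stably expressing GCaMP6f, APOL1 G2 induced 6 h with doxycycline (20 ng/mL added), then washed into Ca2+-free Tyrode's buffer pH 7.4. Compounds (8-point dose response) preincubated 10 min at room temperature, then Ca2+ injected to 5 mM final and influx read on FLIPR. AC50 reported as geometric mean of runs.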

APOL1 G2 [2] = molecular target: T1, APOL1 G2; assay: Rescue of HEK293 cell death caused by overexpression of APOL1 (CellTiter-Glo luminescence), HEK293/T-REx APOL1 G2/clone #2; assay type: cell-based; conditions: reversal of cell death caused by overexpression of APOL1; geometric mean of at least 2 assay runs, † = single assay run (technical duplicate)
Outline: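 HEK293/T-REx APOL1 G2 clone #2 cells, 5,000/well, induced with 6 ng/mL doxycycline and exposed to compound (8-point, 3-fold dilutions, 0.5% DMSO) for 17 h at 37 °C. Viability by CellTiter-Glo luminescence; EC50 for reversal of APOL1-induced death from a four-parameter logistic fit, geometric mean of ≥2 runs.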

Row | Compound | AC50 (APOL1 G2 [1]) [nM] | EC50 (APOL1 G2 [2]) [nM]
1 | CN(c1ccc(OC[C@@H](O)CNCCc2cc(Cl)ccc2Cl)cc1)S(C)(=O)=O [Compound 90, (S)-N-(4-(3-((2,5-dichlorophenethyl)amino)-2-hydroxypropoxy)phe-nyl)-N-methylmethanesulfon-amide] | 515 | 1460
2 | CN(c1ccc(OC[C@H](O)CN2CCC(c3cccc(Cl)c3)C2(C)C)cc1)S(C)(=O)=O (single isomer, unassigned) [Compound 73, N-(4-((R)-3-((R) or (S)-3-(3-chlorophenyl)-2,2-dimethylpyrrolidin-1-yl)-2-hydroxypropoxy)phe-nyl)-N-methylmethanesulfon-amide] | 3060 | > 17800
3 | CC(Cc1cccc(Cl)c1)NC[C@H](O)COc1ccc(N(C)S(C)(=O)=O)cc1 (single isomer, unassigned) [Compound 95, N-(4-((S)-3-(((S) or (R)-1-(3-chlorophenyl)propan-2-yl)amino)-2-hydroxypropoxy)phe-nyl)-N-methylmethanesulfon-amide] | 1540 | 6900
4 | COc1ccc(Cl)cc1CCN1CCN[C@H](COc2ccc(S(C)(=O)=O)cc2)C1 [Compound 191, (3S)-1-[2-(5-chloro-2-methoxyphenyl)ethyl]-3-[(4-methanesulfonylphenoxy)methyl]piperazine] | 228 | 663
5 | CS(=O)(=O)c1ccc(OC[C@H](O)CN[C@H]2C[C@H](c3cccc(Cl)c3)C2)cc1 [Compound 67, (R)-1-((trans-3-(3-chlorophenyl)cyclo-butyl)amino)-3-(4-(methylsulfonyl)phe-noxy)propan-2-ol] | 340 | 1350
6 | C[C@@H]1CN(CC(O)c2cc(Cl)cc(C#N)c2)C[C@H]1COc1ccc(S(C)(=O)=O)cc1 (single isomer, unassigned) [Compound 122, 3-chloro-5-[(1R or 1S)-1-hydroxy-2-[(3S,4S)-3-[(4-methanesulfonylphenoxy)methyl]-4-methylpyrrolidin-1-yl]ethyl] benzonitrile] | 709 | 1340
7 | CC1CC(COc2ccc(S(C)(=O)=O)cc2)CN1CCc1cccc(Cl)c1 (single isomer, unassigned) [Compound 54, rac-cis or trans-1-(3-chlorophenethyl)-2-methyl-4-((4-(methylsulfonyl)phenoxy)methyl)pyrrolidine] | < 114 | > 30000
8 | CN(c1ccc(OC[C@H](O)CNCCc2cccc(Cl)c2)cc1)S(C)(=O)=O [Compound 87, (R)-N-(4-(3-((3-chlorophenethyl)a-mino)-2-hydroxypropoxy)phe-nyl)-N-methylmethanesulfon-amide] | 352 | 1850
9 | CN(c1ccc(OC[C@H](O)CN2CCC(c3cccc(Cl)c3)C2(C)C)cc1)S(C)(=O)=O (single isomer, unassigned) [Compound 72, N-(4-((R)-3-((S) or (R)-3-(3-chlorophenyl)-2,2-dimethylpyrrolidin-1-yl)-2-hydroxypropoxy)phe-nyl)-N-methylmethanesulfon-amide] | 314 | 1220
10 | CC1CC(COc2ccc(S(C)(=O)=O)cc2)CN1CCc1cccc(Cl)c1 (single isomer, unassigned) [Compound 57, (2S,4R) or (2S,4S) or (2R,4S) or (2R,4R)-1-(3-chlorophenethyl)-2-methyl-4-((4-(methylsulfonyl)phenoxy)methyl)pyrrolidine] | < 5000 | 1680
11 | C[C@@H]1CN(CCc2cccc(C#N)c2)C[C@H]1COc1ccc(S(C)(=O)=O)cc1 [Compound 149, 3-{2-[(3S,4S)-3-[(4-methane-sulfonylphen-oxy)methyl]-4-methylpyrroli-din-1-yl]ethyl}-benzonitrile] | 99.8 | 272
12 | C[C@H]1CN(CCc2cccc(Cl)c2)C[C@H]1COc1ccc(S(C)(=O)=O)cc1 (single isomer, unassigned) [Compound 152, (3S,4R or 3R, 4S)-1-[2-(3-chlorophenyl)-ethyl]-3-[(4-methanesulfon-ylphenoxy)meth-yl]-4-methyl-pyrrolidine] | 1990 | 4720
13 | C[C@@H]1CN(CCc2cccc(Cl)c2)C[C@H]1COc1ccc(S(=O)(=O)CCS(C)(=O)=O)cc1 [Compound 107, (3S,4S)-1-[2-(3-chlorophenyl)ethy 1]-3-{[4-(2-methanesulfonyl-ethanesulfonyl)phenoxy]methyl}-4-methyl-pyrrolidine] | 91.9 | 80.9
14 | Cc1c(C#N)cc(Cl)cc1CCN1C[C@@H](COc2ccc(S(C)(=O)=O)cc2)C[C@H]1C [Compound 141, 5-chloro-3-{2-[(2R,4S)-4-[(4-methanesulfon-ylphenoxy)meth-yl]-2-methyl-pyrrolidin-1-yl]-ethyl}-2-methyl-benzonitrile] | 737 | 78.9
15 | CC1CC(COc2ccc(S(C)(=O)=O)cc2)CN1CCc1cccc(C#N)c1 (single isomer, unassigned) [Compound 138, 3-{2-[(2R,4S or 2S,4R or 2R,4R or 2S,4S)-4-[(4-methanesulfon-ylphenoxy)meth-yl]-2-methyl-pyrrolidin-1-yl]-ethyl}benzo-nitrile] | 2500 | 1970
16 | CN(c1ccc(O[C@H]2C[C@H](NCCc3cccc(Cl)c3)C2)cc1)S(C)(=O)=O [Compound 48, trans-N-(4-(3-((3-chlorophenethyl)amino)cyclobutoxy)phenyl)-N-methylmethanesulfonamide] | 1920 | 2540

More lines, main results first:

Row | AC50 (APOL1 G2 [1]) [nM] | Compound | EC50 (APOL1 G2 [2]) [nM]
17 | 864 | CS(=O)(=O)c1ccc(OCC2CN(CCc3cccc(Cl)c3)CCC2O)cc1 (single isomer, unassigned) [Compound 30, (3R,4R) or (3S,4S) or (3R,4S) or (3S,4R)-1-(3-chlorophenethyl)-3-((4-(methylsulfonyl)phenoxy)methyl)piperidin-4-ol] | 2410
18 | 1670 | CN(c1ccc(OC[C@H](O)CN2CCC(c3cccc(Cl)c3)C2)cc1)S(C)(=O)=O (stereo partly drawn) [Compound 77, N-(4-((2R)-3-(3-(3-chlorophenyl)pyrro-lidin-1-yl)-2-hydroxypropoxy)phe-nyl)-N-methylmethanesulfon-amide] | > 6300
19 | 558 | CN(c1ccc(OC[C@@H](O)CN2CCC(c3cccc(Cl)c3)C2)cc1)S(C)(=O)=O (single isomer, unassigned) [Compound 75, N-(4-((S)-3-((S) or (R)-3-(3-chlorophenyl)pyrro-lidin-1-yl)-2-hydroxypropoxy)phe-nyl)-N-methylmethanesulfon-amide] | 1460
20 | 266 | CN(c1ccc(OCC2CCCN(CCc3cccc(Cl)c3)C2)cc1)S(C)(=O)=O (single isomer, unassigned) [Compound 8, (S) or (R)—N-(4-((1-(3-chlorophenethyl)piperidin-3-yl)methoxy)phenyl)-N-methylmethanesulfonamide] | 132
21 | 2000 | CS(=O)(=O)c1ccc(OCC2CN(CCc3cccc(Cl)c3)CCC2O)cc1 (racemic) [Compound 28, rac-cis or trans-1-(3-chlorophenethyl)-3-((4-(methylsulfonyl)phenoxy)methyl)piperidin-4-ol] | 2340
22 | 6410 | CS(=O)(=O)c1ccc(OC[C@@H]2CCCN(CC(O)c3cccc(Cl)c3)C2)cc1 (single isomer, unassigned) [Compound 22, (S) or (R)-1-(3-chlorophenyl)-2-((R)-3-((4-(methylsulfonyl)phenoxy)methyl)piperidin-1-yl)ethanol] | 6590
23 | 14200 | COC1CCN(CCc2cccc(Cl)c2)CC1COc1ccc(S(C)(=O)=O)cc1 (single isomer, unassigned) [Compound 36, (3R,4R) or (3S,4S) or (3R,4S) or (3S,4R)-1-(3-chlorophenethyl)-4-methoxy-3-((4-(methylsulfonyl)phenoxy)methyl)piperidine] | > 30000
24 | 287 | CS(=O)(=O)c1ccc(OC[C@@H]2CCCN(CCc3cccc(Cl)c3)C2)cc1 [Compound 15, (R)-1-(3-chlorophenethyl)-3-((4-(methylsulfonyl)phenoxy)methyl)piperidine] | 567
25 | 277 | C[C@H]1CC[C@H](COc2ccc(S(C)(=O)=O)cc2)CN1CCc1cccc(Cl)c1 [Compound 134, (25,5S)-1-[2-(3-chlorophenyl)ethyl]-5-[(4-methanesulfonylphenoxy)methyl]-2-methylpiperidine] | 908
26 | 480 | CS(=O)(=O)c1ccc(OC[C@H]2CCCN(CC(O)c3cccc(Cl)c3)C2)cc1 (single isomer, unassigned) [Compound 19, (S) or (R)-1-(3-chlorophenyl)-2-((S)-3-((4-(methylsulfonyl)phenoxy)methyl)piperidin-1-yl)ethan-1-ol] | 374
